The source of these data is patent publication US11701434B2, “Tertiary amino lipidated cationic peptides for nucleic acid delivery” (Nutcracker Therapeutics, Inc., priority 2018, dated 2023).

Data set [1] in a line: Dynamic light scattering (DLS) of Fluc mRNA/peptoid formulations: particle size and polydispersity. Type of data set: physicochemical. Conditions: 5:1 mass ratio peptoid:cargo; for Size (volume average particle size/diameter): Fluc mRNA/peptoid complex; for Size PDI (size polydispersity index): Fluc mRNA/peptoid formulation. The procedure:
(§1) In standard formulations, the tertiary amino lipidated and/or PEGylated cationic peptide compound is dissolved in anhydrous ethanol at a concentration of 0.5 mg/mL (for in vitro experiments) or 5 mg/mL (for in vivo experiments). The resulting solutions are stable at room temperature, but should be stored at −20° C. The nucleic acid cargo is dissolved in DNAse or RNAse-free water at a final concentration of 0.2 mg/mL (for in vitro experiments) or 1 mg/mL (for in vivo experiments). These solutions should be stored at −20° C. or at −78° C. for longer time periods. To prepare nanoparticle formulations, the tertiary amino lipidated and/or PEGylated cationic peptide compound is mixed by pipetting with nucleic acid at a mass ratio between approximately 1:1 (peptide compound:cargo) and 20:1. Prior to formulation, tertiary amino lipidated and/or PEGylated cationic peptide compounds and cargo (such as nucleic acid) are diluted in ethanol and acidic buffer (PBS adjusted to pH 5.5 with 0.1 M HCl) respectively to a volume ratio of 1:3 and to target a final cargo concentration of approximately 0.05 mg/mL to 0.2 mg/mL. The exemplary amino lipidated cationic peptoids 1-36 described in Example 2 were combined with firefly luciferase (Flue) mRNA to form nanoparticle compositions to be evaluated for therapeutic and/or prophylactic purposes in vitro or in vivo. The formulations were prepared according to the protocol of Example 3 and mixed by simple pipetting. The mRNA/peptoid formulation at a 5:1 mass ratio of peptoid:cargo were evaluated by dynamic light scattering (DLS) in order to determine the volume average particle size/diameter (nm) of the mRNA/peptoid complex and the size polydispersity index (PDI) within the formulation. The percentage of mRNA encapsulation for each formulation of the exemplary compounds were determined by fluorescence of the Qubit RNA HS (Invitrogen) dye before and after lysis of particles by Triton X-100.

Data set [2] can be described thus: mRNA encapsulation by Qubit RNA HS dye fluorescence before and after Triton X-100 lysis. Type of data set: physicochemical. Conditions: Fluc mRNA/peptoid formulation, 5:1 mass ratio peptoid:cargo. The procedure: as §1

In the case of `CCCCCCCCCCN(CC(N)=O)C(=O)CN(CCCCCCCCCC)C(=O)CN(CCc1ccccc1)C(=O)CN(CCc1ccccc1)C(=O)CN(CCCN)C(=O)CN(CCc1ccccc1)C(=O)CN(CCc1ccccc1)C(=O)CN(CCCN)C(=O)CN(CCc1ccccc1)C(=O)CN(CCc1ccccc1)C(=O)CNCCCN` [Compound 30], in data set [1], the “Size (volume average particle size/diameter)” value came out at 282.8 nm and the “Size PDI (size polydispersity index)” value is on record as 0.455. The “% Encapsulation (percentage of mRNA encapsulation)” value in data set [2] worked out at 8.4%.

Regarding `CCCCCCCCCCN(CC(N)=O)C(=O)CN(CCCCCCCCCC)C(=O)CN(CCCCCCCCCC)C(=O)CN(CCCCCCCCCC)C(=O)CN(CCc1ccccc1)C(=O)CN(CCc1ccccc1)C(=O)CN(CC1CCNCC1)C(=O)CN(CCc1ccccc1)C(=O)CN(CCc1ccccc1)C(=O)CN(CC1CCNCC1)C(=O)CN(CCc1ccccc1)C(=O)CN(CCc1ccccc1)C(=O)CN(CC1CCNCC1)C(=O)CN(CCc1ccccc1)C(=O)CN(CCc1ccccc1)C(=O)CNCC1CCNCC1` [Compound 32], in data set [1], the “Size (volume average particle size/diameter)” value was 247.5 nm and the “Size PDI (size polydispersity index)” value is 0.274. Also, in data set [2], the “% Encapsulation (percentage of mRNA encapsulation)” value came to 50.9%.

`CCCCCCCCCCN(CC(N)=O)C(=O)CN(CCCCCCCCCC)C(=O)CN(CCc1ccccc1)C(=O)CN(CCc1ccccc1)C(=O)CN(CC1CCCN1)C(=O)CN(CCc1ccccc1)C(=O)CN(CCc1ccccc1)C(=O)CN(CC1CCCN1)C(=O)CN(CCc1ccccc1)C(=O)CN(CCc1ccccc1)C(=O)CNCC1CCCN1` (stereo not drawn) [Compound 36]: in data set [1], the “Size (volume average particle size/diameter)” value was 374.4 nm and the “Size PDI (size polydispersity index)” value is listed as 0.127. Besides, the “% Encapsulation (percentage of mRNA encapsulation)” value in data set [2] was 71.5%.

Consider `CCCCCCCCCCN(CC(N)=O)C(=O)CN(CCCCCCCCCC)C(=O)CN(CCCCCCCCCC)C(=O)CN(CCCCCCCCCC)C(=O)CN(CCCCCCCCCC)C(=O)CN(CCCCCCCCCC)C(=O)CN(CCc1ccccc1)C(=O)CN(CCc1ccccc1)C(=O)CN(CCN)C(=O)CN(CCc1ccccc1)C(=O)CN(CCc1ccccc1)C(=O)CN(CCN)C(=O)CN(CCc1ccccc1)C(=O)CN(CCc1ccccc1)C(=O)CNCCN` [Compound 22], for which, in data set [1], the “Size (volume average particle size/diameter)” value is reported as 748.2 nm and the “Size PDI (size polydispersity index)” value was found to be 0.538. For the same molecule, in data set [2], the “% Encapsulation (percentage of mRNA encapsulation)” value is 65.4%.

For `CCCCCCCCCCN(CC(N)=O)C(=O)CN(CCCCCCCCCC)C(=O)CN(CCc1ccccc1)C(=O)CN(CCN)C(=O)CN(CCc1ccccc1)C(=O)CN(CCN)C(=O)CN(CCc1ccccc1)C(=O)CNCCN` [Compound 13], in data set [1], the “Size (volume average particle size/diameter)” value turned out to be 822.6 nm and the “Size PDI (size polydispersity index)” value is recorded as 0.447. In addition, the “% Encapsulation (percentage of mRNA encapsulation)” value in data set [2] was found to be 90.4%.

With `CCCCCCCCCCN(CC(N)=O)C(=O)CN(CCCCCCCCCC)C(=O)CN(CCc1ccccc1)C(=O)CN(CCc1ccccc1)C(=O)CN(CCNC)C(=O)CN(CCc1ccccc1)C(=O)CN(CCc1ccccc1)C(=O)CN(CCNC)C(=O)CN(CCc1ccccc1)C(=O)CN(CCc1ccccc1)C(=O)CNCCNC` [Compound 27], in data set [1], the “Size (volume average particle size/diameter)” value was determined as 438.7 nm and the “Size PDI (size polydispersity index)” value came to 0.606. For the same molecule, the “% Encapsulation (percentage of mRNA encapsulation)” value in data set [2] was found to be 50.9%.

On to `CCCCCCCCCCNCC(=O)N(CCN)CC(=O)N(CCc1ccccc1)CC(=O)N(CCc1ccccc1)CC(=O)N(CCN)CC(=O)N(CCc1ccccc1)CC(=O)N(CCc1ccccc1)CC(=O)N(CCN)CC(=O)N(CCc1ccccc1)CC(=O)N(CCc1ccccc1)CC(=O)N(CCCCCCCCCC)CC(N)=O` [Compound 18], for which, in data set [1], the “Size (volume average particle size/diameter)” value turned out to be 593 nm and the “Size PDI (size polydispersity index)” value amounted to 0.762. In addition, in data set [2], the “% Encapsulation (percentage of mRNA encapsulation)” value was 88.5%.

On to `CCCCCCCCCCN(CC(N)=O)C(=O)CN(CCCCCCCCCC)C(=O)CN(CCN)C(=O)CN(CCN)C(=O)CN(CCN)C(=O)CN(CCN)C(=O)CN(CCN)C(=O)CN(CCN)C(=O)CN(CCN)C(=O)CN(CCN)C(=O)CNCCN` [Compound 16], for which, in data set [1], the “Size (volume average particle size/diameter)” value worked out at 1486 nm and the “Size PDI (size polydispersity index)” value is 1. For the same molecule, in data set [2], the “% Encapsulation (percentage of mRNA encapsulation)” value is given as 85.4%.

For `CCCCCCCCCCN(CC(N)=O)C(=O)CN(CCc1ccccc1)C(=O)CN(CCc1ccccc1)C(=O)CN(CCN)C(=O)CN(CCc1ccccc1)C(=O)CN(CCc1ccccc1)C(=O)CN(CCN)C(=O)CN(CCc1ccccc1)C(=O)CN(CCc1ccccc1)C(=O)CNCCN` [Compound 6], in data set [1], the “Size (volume average particle size/diameter)” value amounted to 448.6 nm and the “Size PDI (size polydispersity index)” value is 0.348. In addition, in data set [2], the “% Encapsulation (percentage of mRNA encapsulation)” value was 92.4%.

`CCCCCCCCCCN(CC(N)=O)C(=O)CN(CCCCCCCCCC)C(=O)CN(CCc1ccccc1)C(=O)CN(CCc1ccccc1)C(=O)CN(CCN)C(=O)CN(CCc1ccccc1)C(=O)CN(CCc1ccccc1)C(=O)CN(CCN)C(=O)CN(CCc1ccccc1)C(=O)CN(CCc1ccccc1)C(=O)CNCCN` [Compound 2]: in data set [1], the “Size (volume average particle size/diameter)” value was found to be 150 nm and the “Size PDI (size polydispersity index)” value is reported as 0.128. The “% Encapsulation (percentage of mRNA encapsulation)” value in data set [2] was determined as 100.3%.
